Assay results from patent US20050288347A1, “Certain triazole-based compounds, compositions, and uses thereof” (priority 2004, published 2005).
Entries after “also recorded” stand apart in the source; their conditions may differ.

Test system: protein kinase
Experiment: HTS ATP-utilizing enzyme assay, off-chip mobility-shift format (Caliper HTS 250)
Assay type: biochemical, human
Conditions: test compound 10 μM; active = activity greater than three-sigma from the mean of the predominately inactive population for that enzyme
In short: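 Single-point screen at 10 μM compound in HEPES pH 7.5 buffer with Triton X-100 and BSA, 2.5 h at 20–22 °C. Substrate-to-phosphopeptide ratio measured by off-chip microfluidic mobility shift; EDTA wells as 100% and DMSO wells as 0% control, hits called at three-sigma limits.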

| protein kinase against which the compound exhibits inhibitory activity (Table 3) | Structure (SMILES) |
| --- | --- |
| INSR and PDGFRR-α and CHEK1 | CCn1c(COc2ccc(Cl)cc2)nnc1SCCN1CCCCC1 |
| GSK3-α | Cn1cnnc1SCc1csc(Cc2ccc(Cl)c(Cl)c2)n1 |
| PDGFRR-α | O=[N+]([O-])c1ccc(-c2nnc(CSc3nncn3-c3ccccn3)o2)cc1 |
| KIT | COCCNC(=O)CSc1nnc(-c2ccccc2O)n1-c1ccccc1OC |
| CDK2-cyclinA | Cc1ccc(CSc2nnc(CSc3nc(C)cc(C)n3)n2Cc2ccco2)cc1 |
| GSK3-α; also recorded: CHEK2 | COc1ccc(-c2nnc(SCc3nnc(-c4ccccc4)o3)n2C)cc1OC |
| AURORA-A | N#Cc1ccccc1CSc1nnc(-c2ccc(OC(F)(F)F)cc2)[nH]1 |
| CDK1 | Cc1cc(C)nc(SCc2nnc(SCc3ccccc3)n2Cc2ccco2)n1 |
| GSK3-α | Cc1ccc(-c2nnc(CSc3nnc(COc4ccccc4)n3-c3ccc(C)cc3)o2)cc1 |
| MAPKAPK-2 | CCn1c(CNc2ccccc2Cl)nnc1SCCN1CCCCC1 |
| CDK1 | COc1ccc(-n2c(CNc3cc(C(F)(F)F)ccc3Cl)nnc2SCc2ccccc2Cl)cc1 |
| GSK3-β; also recorded: GSK3-α | Cc1ccc(-n2c(SCc3nnc(-c4ccccc4)o3)nnc2-c2ccncc2)cc1 |
| SYK | Cc1ccc(NCc2nnc(SCc3nnc(-c4ccccc4)o3)n2CC2CCCO2)c(C)c1 (stereo not drawn) |
| CHEK2 | COCCn1c(SCCN2CCOCC2)nnc1-c1cc2ccccc2cc1O |
| GSK3-β; also recorded: GSK3-α | CN1C=NN(c2cc3ccccc3cc2O)C1SCc1nnc(-c2ccccc2)o1 (stereo not drawn) |
| SYK | CC(C)(C)c1ccc(CSc2nnc(COc3ccc(Cl)cc3)n2-c2ccccc2)cc1 |
| DAPK1 | COCCCn1c(SCc2ccc(Cl)cc2)nnc1-c1ccc(C(C)(C)C)cc1 |
| GSK3-α | c1ccc(CSc2nnc(CCC3CCCC3)n2Cc2cccnc2)cc1 |
| AURORA-A; also recorded: c-TAK1 | Cc1ccc(CCn2c(CCC3CCCC3)nnc2SCc2ccccc2)cc1 |
| LCK | Clc1cccc(NCc2nnc(SCc3ccccc3Cl)n2-c2ccccc2)c1 |
| LCK | Clc1cccc(NCc2nnc(SCc3ccc(Cl)cc3Cl)n2-c2ccccc2)c1 |
| GSK3-α; also recorded: CHEK2 | Cc1nn(-c2ccccc2)c2sc(-c3nnc(SCCN4CCCCC4)n3C)cc12 |

| protein kinase against which the compound exhibits inhibitory activity (Table 3) | Structure (SMILES) |
| --- | --- |
| CSK and LCK | COc1cc(CSc2nnc[nH]2)c(OC)cc1CSc1nnc[nH]1 |
| GSK3-α; also recorded: GSK3-β | COc1ccc(-n2c(SCCN3CCOCC3)nnc2-c2ccc(O)cc2)cc1 |
| GSK3-β; also recorded: GSK3-α | Cc1ccc(-c2nnc(CSc3nnc(-c4ccc(S(=O)(=O)N5CCOCC5)cc4)n3C)o2)cc1 |
| c-TAK1 | CCn1c(SCc2ccc(-c3csnn3)cc2)nnc1-c1cc(-c2ccccc2)nc2ccccc12 |
| c-TAK1 | FC(F)Oc1ccccc1CSc1nnc(-c2cc(-c3ccccc3)nc3ccccc23)n1Cc1ccco1 |
| CHEK2 | CCOc1ccc2nc(-c3ccc(OC)cc3)cc(-c3nnc(SCc4ccc(F)cc4F)n3C)c2c1 |
| DYRK2 | COCCCn1c(SCc2ccc(C(C)(C)C)cc2)nnc1-c1ccncc1 |
| MAPKAPK-2 | CC(C)(C)c1ccc(CSc2nnc(-c3ccncc3)n2Cc2ccco2)cc1 |
| GSK3-α; also recorded: GSK3-β | O=C(O)c1ccc(CSc2nnc(-c3ccncc3)n2Cc2ccco2)cc1 |
| AURORA-A | CCn1c(SCc2cc(=O)[nH]c3ccccc23)nnc1-c1cc2ccccc2cc1O |
| GSK3a | Cn1c(COc2ccccc2)nnc1SCc1cc(=O)[nH]c2ccccc12 |
| SYK | Cc1ccc(-n2c(SCc3ccc(C(=O)O)cc3)nnc2-c2ccc(Cl)cc2)cc1 |
| FYN | CCOc1ccc(NCc2nnc(SCCN3CCOCC3)n2-c2ccc(OC)cc2)cc1 |
| PDGFRR-α and FYN | CCOc1ccc(NCc2nnc(SCCN3CCCCC3)n2-c2ccccc2)cc1 |
| FYN and PDGFRR-α | CCOc1ccc(NCc2nnc(SCCN3CCCCC3)n2-c2ccc(C)cc2)cc1 |
| FYN | CCOc1ccc(NCc2nnc(SCCN3CCOCC3)n2-c2ccc(C)cc2)cc1 |
| FYN | CCOc1ccc(NCc2nnc(SCCN3CCOCC3)n2-c2ccccc2)cc1 |
| PDGFRR-α | Cn1c(CNc2ccc(F)cc2)nnc1SCCN1CCOCC1 |
| CDK2-cyclinA | Fc1ccc(NCc2nnc(SCCN3CCOCC3)n2-c2ccccc2)cc1 |
| FYN and PDGFRR-α and FLT-3 | COc1ccc(NCc2nnc(SCCN3CCCCC3)n2-c2ccccc2OC)cc1 |
| FYN | COc1ccc(NCc2nnc(SCCN3CCCCC3)n2-c2ccc(OC)cc2)cc1 |
| FYN and PDGFRR-α | COc1ccc(NCc2nnc(SCCN3CCCCC3)n2C)cc1 |

| protein kinase against which the compound exhibits inhibitory activity (Table 3) | Structure (SMILES) |
| --- | --- |
| FYN | COc1ccc(NCc2nnc(SCc3ccc([N+](=O)[O-])cc3)n2C)cc1 |
| AURORA-A | CCOc1ccc2nc(-c3ccc(OC)cc3)cc(-c3nnc(SCc4ccc(F)cc4C(F)(F)F)n3C)c2c1 |
| PDGFRR-α and FLT-3 and FYN | COc1ccc(N)cc1Cc1nnc(SCc2c(Cl)cccc2Cl)n1-c1ccccc1 |
| LCK | Cc1ccc(S(=O)(=O)N(Cc2nnc(SCc3ccc(Cl)cc3Cl)n2-c2ccccc2)c2cccc(Cl)c2)cc1 |
| CHEK2; also recorded: AURORA-A | CCOc1ccc(Nc2nc(Cc3nnc(SCc4cccnc4)n3CC)cs2)cc1 |
| FYN and FLT-3 and PDGFRR-α | CCOc1ccc(NCc2nnc(SCCN3CCOCC3)n2-c2cccc(Cl)c2)cc1 |
| FYN and PDGFRR-α and FLT-3 | COc1ccc(NCc2nnc(SCCN3CCCCC3)n2-c2cccc(Cl)c2)cc1 |
| LYNA | CC1=CC(C)=NCN1SCc1nnc(SCc2ccc([N+](=O)[O-])cc2)n1Cc1ccco1 |
| AURORA-A | Cc1ccc(NCc2nnc(SCc3nnc(-c4ccccc4)o3)n2Cc2ccco2)c(C)c1 |
| PDGFRR-α and FYN and FLT-3 | CCn1c(CNc2ccc(OC)cc2)nnc1SCc1c(F)cccc1Cl |
| GSK3-β; also recorded: GSK3-α | Cn1c(CNc2ccc(F)cc2)nnc1SCc1c(Cl)cccc1Cl |
| PDGFRR-α and FYN and FLT-3 | COc1ccc(NCc2nnc(SCCCC3CCCCC3)n2C)cc1 |
| AURORA-A; also recorded: CDK2-cyclinE | CCn1c(CNc2ccc(C)cc2)nnc1SCc1ccc(Cl)c(Cl)c1 |
| PDGFRR-α and FYN( | CCn1c(CNc2ccc(OC)cc2)nnc1SCc1ccc(Cl)cc1 |
| PDGFRR-α and MSK2 | Cc1cccc(NCc2nnc(SCc3ccc(Cl)cc3)n2-c2ccccc2)c1 |
| PDGFRR-α and FYN | COc1ccc(NCc2nnc(SCc3ccc(Cl)cc3)n2-c2ccccc2)cc1 |
| AURORA-A and SYK | Cc1ccc(NCc2nnc(SCc3ccc(C(C)(C)C)cc3)n2-c2ccc(C)cc2)cc1 |
| AURORA-A | Cc1ccc(NCc2nnc(SCc3ccccc3)n2C)cc1 |
| AKT1 | COc1ccccc1-n1c(SC(C)C(=O)NCc2ccco2)nnc1-c1ccccc1 (stereo not drawn) |
| FLT-3; also recorded: GSK3-β | CCOC(=O)c1ccc(CSc2nnc(-c3ccc(OC(F)(F)F)cc3)[nH]2)o1 |
| FLT-3 | CCOC(=O)c1ccc(CSc2nnc(Cc3ccc(OC)cc3)[nH]2)o1 |
| AURORA-A | CCOC(=O)c1ccc(CSc2nnc(-c3ccc([N+](=O)[O-])cc3)[nH]2)o1 |

| Structure (SMILES) | protein kinase against which the compound exhibits inhibitory activity (Table 3) |
| --- | --- |
| NC(=O)CSc1nnc(-c2ccc(OC(F)(F)F)cc2)[nH]1 | AURORA-A; also recorded: GSK3-β; also recorded: DYRK2 |
| N#Cc1cccc(CSc2nnc(-c3cccs3)[nH]2)c1 | AURORA-A; also recorded: GSK3-β; also recorded: GSK3-α |
| Clc1ccc(Cn2c(CCC3CCCC3)nnc2SCc2ccccc2)cc1Cl | GSK3-β; also recorded: AURORA-A; also recorded: c-TAK1 |
| Cc1nn(-c2ccccc2)c2sc(-c3nnc(SCCN4CCOCC4)n3C)cc12 | GSK3-α; also recorded: GSK3-β; also recorded: DAPK1 |
| O=C(O)c1ccc(CSc2nnc(-c3ccc(OC(F)(F)F)cc3)[nH]2)cc1 | FLT-3; also recorded: AURORA-A; also recorded: DYRK2 |
| CCc1nnc(SCc2ccccc2)n1Cc1ccc(Cl)c(Cl)c1 | GSK3-α; also recorded: GSK3-β; also recorded: AURORA-A |
